Reference: article PMC6017704 (Molecules : A Journal of Synthetic Chemistry and Natural …, 2018)

Columns and labels:
[1] = test system: human umbilical vein endothelial cells (PUMC-HUVEC-T1); test: HUVEC cell anti-proliferation assay (MTT); assay type: cell-based; conditions: for inhibition ratio in HUVEC / viability at 10 µM: 10 µM; for viability at 1 µM / viability at 10 µM / IC50: Homo sapiens, 72 h, MTT; for viability at 1 µM / viability at 10 µM: read-out: Relative Cell Viability (%) ± SD (n = 3); for IC50: n = 3, read-out: IC50, HUVEC relative cell viability
From the text: A major mediator of VEGF-driven responses in endothelial cells is VEGFR-2, which is considered to play a decisive role in both physiologic and pathologic angiogenesis. The homogeneous time-resolved fluorescence (HTRF) method was used in the assay that determined the inhibitory activities of target compounds against VEGFR-2 kinase. Owing to VEGFR-2 overexpression in human umbilical vein endothelial cells (HUVEC), these target compounds were further evaluated in vitro anti-proliferation activity against HUVEC. MTT assay was used in the cell assay. […] In order to ensure the repeatability of the activity test, we choose to complete biological evaluation under the dark condition.
SV40T transforms human umbilical vein endothelial cells (PUMC-HUVEC-T1) were gifts from Dr. Lihua Ding (Institute of Biotechnology, Beijing, China). MTT Cell Proliferation and Cytotoxicity Assay Kit (#GK-5605, Genview) was used to measure cell viability and proliferation. Metabolically active cells in part by the action of dehydrogenase enzymes reduced the yellow tetrazolium MTT to generate purple reducing equivalents such as NADH and NADPH. The resulting intracellular purple formazan can be solubilized and quantified by spectrophotometer.
For MTT assay, cells were seeded into separate 96-well plates at 5000 cells/well and cultured in an incubator containing 5% CO2 at 37 °C for 24 h. Subsequently, target compounds were dissolved into different concentrations with culture medium from 10 mM stock solutions in DMSO, respectively. Then target compounds were added and incubated at 37 °C for 72 h. All assays were performed in triplicate. The untreated groups were used as a vehicle of control. Following the 72-h incubation, discarded culture medium and washed with PBS once time followed by adding 180 µL of fresh culture medium. Cell viability was quantified with MTT assay. According to the manufacturer instructions, 20 µL of MTT solution that was previously thawed and equilibrated to room temperature was added to each well and plates were incubated at 37 °C for 4 h. Termination of culture, the supernatant was carefully discarded and added 150 µL of Formazan dissolution for 10 min vibration at room temperature. The OD value of each well was measured by a spectrophotometer at 490 nm and the inhibitory rates expressed as percentages of the vehicle control (100%). Data processing: ratio = Vsample/Vcontrol × 100%. Vsample is for compound treatment group while Vcontrol is for solvent control group. The GraphPad Prism 5.0 software was used to draw nonlinear regression model and calculated IC50 values.

VEGFR-2 (KDR) kinase = target: T1, VEGFR-2 (KDR) kinase (Homo sapiens, UniProt P35968); test: VEGFR-2 kinase assay (HTRF KinEASE-TK); assay type: biochemical; conditions: for IC50: HTRF, ATP 3 µM, 40 min, dark condition, n = 3
T1 construct: purchased Carna Biosciences
T1 sequence (P35968 20-1356): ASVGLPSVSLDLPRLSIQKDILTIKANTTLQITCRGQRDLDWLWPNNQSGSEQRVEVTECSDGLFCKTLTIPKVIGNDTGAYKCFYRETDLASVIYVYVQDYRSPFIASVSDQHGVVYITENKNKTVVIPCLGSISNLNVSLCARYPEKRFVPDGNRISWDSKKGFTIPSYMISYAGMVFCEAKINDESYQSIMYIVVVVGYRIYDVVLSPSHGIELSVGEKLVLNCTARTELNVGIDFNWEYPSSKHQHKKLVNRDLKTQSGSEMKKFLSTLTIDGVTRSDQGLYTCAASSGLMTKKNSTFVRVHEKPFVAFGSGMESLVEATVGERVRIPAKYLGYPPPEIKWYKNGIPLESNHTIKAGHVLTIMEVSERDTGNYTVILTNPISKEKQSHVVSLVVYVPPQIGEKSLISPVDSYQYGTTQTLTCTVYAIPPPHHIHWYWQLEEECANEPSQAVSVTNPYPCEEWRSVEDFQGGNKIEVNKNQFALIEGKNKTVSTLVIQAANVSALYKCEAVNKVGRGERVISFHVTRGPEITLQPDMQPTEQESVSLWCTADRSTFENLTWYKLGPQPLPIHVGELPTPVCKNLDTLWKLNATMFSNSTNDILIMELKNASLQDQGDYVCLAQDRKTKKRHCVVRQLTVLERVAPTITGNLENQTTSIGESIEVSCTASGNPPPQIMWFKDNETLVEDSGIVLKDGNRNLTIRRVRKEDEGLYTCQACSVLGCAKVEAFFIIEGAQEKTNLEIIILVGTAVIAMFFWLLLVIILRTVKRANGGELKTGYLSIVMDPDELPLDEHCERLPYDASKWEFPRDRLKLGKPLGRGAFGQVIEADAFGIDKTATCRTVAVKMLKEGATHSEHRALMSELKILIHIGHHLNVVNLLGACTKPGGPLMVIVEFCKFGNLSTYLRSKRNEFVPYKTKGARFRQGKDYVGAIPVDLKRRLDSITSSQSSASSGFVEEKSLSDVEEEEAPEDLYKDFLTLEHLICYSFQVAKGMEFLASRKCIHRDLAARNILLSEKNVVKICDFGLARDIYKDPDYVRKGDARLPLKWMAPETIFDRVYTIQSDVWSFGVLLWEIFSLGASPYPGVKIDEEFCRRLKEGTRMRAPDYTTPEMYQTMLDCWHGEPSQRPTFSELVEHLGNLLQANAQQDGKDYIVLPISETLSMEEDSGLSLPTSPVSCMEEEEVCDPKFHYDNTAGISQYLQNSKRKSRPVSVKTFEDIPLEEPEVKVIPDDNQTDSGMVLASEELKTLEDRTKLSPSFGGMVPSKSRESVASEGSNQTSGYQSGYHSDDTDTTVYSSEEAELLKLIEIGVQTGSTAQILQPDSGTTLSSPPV

SMILES	inhibition ratio in HUVEC [1]	viability at 1 µM [1] [%]	viability at 10 µM [1] [%]	IC50 [1] [µM]	IC50 (VEGFR-2 (KDR) kinase) [nM]	increase of VEGFR-2 activity compared with TM2 (VEGFR-2 (KDR) kinase; relative to TM2)
CNC(=O)c1ccccc1Sc1ccc2c(N=Nc3ccc(C)[nH]3)n[nH]c2c1 [TM11, N-methyl-2-(3-((5-methyl-1H-pyrrol-2-yl)diazenyl)-1H-indazol-6-ylthio)benzamide]	exceeding 60%	67.03 ± 0.19	31 ± 0.61	2.15	330 ± 1.14	–
CNC(=O)c1ccccc1Sc1ccc2c(N=Nc3[nH]c(C)cc3C)n[nH]c2c1 [TM9, 2-(3-((3,5-dimethyl-1H-pyrrol-2-yl)diazenyl)-1H-indazol-6-ylthio)-N-methylbenzamide]	–	68.54 ± 0.29	32.2 ± 1.99	2.18	201 ± 1.26	–
CNC(=O)c1ccccc1Sc1ccc2c(/C=C/c3ccccn3)n[nH]c2c1 [Axitinib, reference compound]	–	80 ± 6.64	53.2 ± 9.11	–	–	–
CNC(=O)c1ccccc1Sc1ccc2c(N=Nc3ccc[nH]3)n[nH]c2c1 [TM7, 2-(3-((1H-pyrrol-2-yl)diazenyl)-1H-indazol-6-ylthio)-N-methylbenzamide]	exceeding 60%	84.4 ± 4.35	39.1 ± 2.49	5.73	123 ± 1.08	–
CNC(=O)c1ccccc1Sc1ccc2c(N=Nc3cccn3C)n[nH]c2c1 [TM6, N-methyl-2-(3-((1-methyl-1H-pyrrol-2-yl)diazenyl)-1H-indazol-6-ylthio)benzamide]	exceeding 60%	97 ± 10.4	19.3 ± 3.82	5.03	2290 ± 1.17	–
CNC(=O)c1ccccc1Sc1ccc2c(N=Nc3ccc(N)cc3OC)n[nH]c2c1 [TM3, 2-(3-((4-amino-2-methoxyphenyl)diazenyl)-1H-indazol-6-ylthio)-N-methylbenzamide]	≤ 20%	125 ± 8.92	84.1 ± 6.83	–	195 ± 1.11	more than ten times
CNC(=O)c1ccccc1Sc1ccc2c(N=Nc3ccc(N(C)C)cc3)n[nH]c2c1 [TM4, 2-(3-((4-(dimethylamino)phenyl)diazenyl)-1H-indazol-6-ylthio)-N-methylbenzamide]	≤ 20%	94.1 ± 1.89	82.8 ± 5.32	–	135 ± 1.25	–
CNC(=O)c1ccccc1Sc1ccc2c(N=Nc3cc(C)[nH]c3C)n[nH]c2c1 [TM10, 2-(3-((2,5-dimethyl-1H-pyrrol-3-yl)diazenyl)-1H-indazol-6-ylthio)-N-methylbenzamide]	–	99.29 ± 0.78	66.2 ± 4.43	–	44 ± 1.15	–
CNC(=O)c1ccccc1Sc1ccc2c(N=Nc3c(OC)cc(N)cc3OC)n[nH]c2c1 [TM2, 2-(3-((4-amino-2,6-dimethoxyphenyl)diazenyl)-1H-indazol-6-ylthio)-N-methylbenzamide]	≤ 20%	107 ± 1.29	94.4 ± 5.01	–	–	–
CNC(=O)c1ccccc1Sc1ccc2c(N=Nc3cc(C)n(C)c3C)n[nH]c2c1 [TM8, N-methyl-2-(3-((1,2,5-trimethyl-1H-pyrrol-3-yl)diazenyl)-1H-indazol-6-ylthio)benzamide]	–	92.3 ± 9.05	61.3 ± 10.9	–	158 ± 1.14	–
